Laboratory results taken from PubChem BioAssay (NCI).
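Briefly, cells in 96-well plates were exposed to five compound concentrations for 48 h, and endpoints were estimated by linear interpolation. Here, GI50 denotes the concentration required for 50% inhibition of growth. TGI: total growth inhibition.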

Experiments:
Assay in all cases: growth of human tumour cells (NCI), 48 h
786-0 renal = tested on: 786-0 renal
A498 renal = tested on: A498 renal
A549 NSCLC = tested on: A549 NSCLC
ACHN renal = tested on: ACHN renal
BT-549 breast = tested on: BT-549 breast
CAKI-1 renal = tested on: CAKI-1 renal
CCRF-CEM leukemia = tested on: CCRF-CEM leukemia
DU-145 prostate = tested on: DU-145 prostate
EKVX NSCLC = tested on: EKVX NSCLC
HCC-2998 colon = tested on: HCC-2998 colon
HCT-116 colon = tested on: HCT-116 colon
HCT-15 colon = tested on: HCT-15 colon
HL-60(TB) leukemia = tested on: HL-60(TB) leukemia
HOP-62 NSCLC = tested on: HOP-62 NSCLC
HOP-92 NSCLC = tested on: HOP-92 NSCLC
HS 578T breast = tested on: HS 578T breast
HT29 colon = tested on: HT29 colon
IGROV1 ovarian = tested on: IGROV1 ovarian
K-562 leukemia = tested on: K-562 leukemia
KM12 colon = tested on: KM12 colon
LOX IMVI melanoma = tested on: LOX IMVI melanoma
M14 melanoma = tested on: M14 melanoma
MALME-3M melanoma = tested on: MALME-3M melanoma
MCF7 breast = tested on: MCF7 breast
MDA-MB-231 breast = tested on: MDA-MB-231 breast
MDA-MB-435 = tested on: MDA-MB-435
MOLT-4 leukemia = tested on: MOLT-4 leukemia
NCI-H226 lung = tested on: NCI-H226 lung
NCI-H23 lung = tested on: NCI-H23 lung
NCI-H460 lung = tested on: NCI-H460 lung
NCI-H522 lung = tested on: NCI-H522 lung
NCI/ADR-RES ovarian = tested on: NCI/ADR-RES ovarian
OVCAR-3 ovarian = tested on: OVCAR-3 ovarian
OVCAR-4 ovarian = tested on: OVCAR-4 ovarian
OVCAR-5 ovarian = tested on: OVCAR-5 ovarian
OVCAR-8 ovarian = tested on: OVCAR-8 ovarian
PC-3 prostate = tested on: PC-3 prostate
RPMI-8226 leukemia = tested on: RPMI-8226 leukemia
RXF 393 renal = tested on: RXF 393 renal
SF-268 CNS = tested on: SF-268 CNS
SF-295 CNS = tested on: SF-295 CNS
SF-539 CNS = tested on: SF-539 CNS
SK-MEL-2 melanoma = tested on: SK-MEL-2 melanoma
SK-MEL-28 melanoma = tested on: SK-MEL-28 melanoma
SK-MEL-5 melanoma = tested on: SK-MEL-5 melanoma
SK-OV-3 ovarian = tested on: SK-OV-3 ovarian
SN12C renal = tested on: SN12C renal
SNB-19 CNS = tested on: SNB-19 CNS
SNB-75 CNS = tested on: SNB-75 CNS
SR leukemia = tested on: SR leukemia
SW-620 colon = tested on: SW-620 colon
T-47D breast = tested on: T-47D breast
TK-10 renal = tested on: TK-10 renal
U251 CNS = tested on: U251 CNS
UACC-257 melanoma = tested on: UACC-257 melanoma
UACC-62 melanoma = tested on: UACC-62 melanoma
UO-31 renal = tested on: UO-31 renal

CCOC(=O)c1ccc2c(c1)c1c(C)c3cnccc3c(C)c1n2C
GI50 (786-0 renal): 141 nM | TGI (786-0 renal): 1110 nM | GI50 (A498 renal): 162 nM | TGI (A498 renal): 376 nM | GI50 (A549 NSCLC): 147 nM | TGI (A549 NSCLC): 1020 nM | GI50 (ACHN renal): 38.5 nM | TGI (ACHN renal): 328 nM | GI50 (BT-549 breast): 441 nM | TGI (BT-549 breast): 1880 nM | GI50 (CAKI-1 renal): 47.5 nM | TGI (CAKI-1 renal): 859 nM | GI50 (CCRF-CEM leukemia): 216 nM | TGI (CCRF-CEM leukemia): 2940 nM | GI50 (DU-145 prostate): 108 nM | TGI (DU-145 prostate): 718 nM | GI50 (EKVX NSCLC): 193 nM | TGI (EKVX NSCLC): 690 nM | GI50 (HCC-2998 colon): 257 nM | TGI (HCC-2998 colon): 1290 nM | GI50 (HCT-116 colon): 37.8 nM | TGI (HCT-116 colon): 1030 nM | GI50 (HCT-15 colon): 57.1 nM | TGI (HCT-15 colon): 921 nM | GI50 (HL-60(TB) leukemia): 324 nM | TGI (HL-60(TB) leukemia): 1490 nM | GI50 (HOP-62 NSCLC): 75.5 nM | TGI (HOP-62 NSCLC): 1070 nM | GI50 (HOP-92 NSCLC): 143 nM | TGI (HOP-92 NSCLC): 813 nM | GI50 (HS 578T breast): 204 nM | TGI (HS 578T breast): 900 nM | GI50 (HT29 colon): 56.1 nM | TGI (HT29 colon): 1410 nM | GI50 (IGROV1 ovarian): 53.9 nM | TGI (IGROV1 ovarian): 357 nM | GI50 (K-562 leukemia): 79.2 nM | TGI (K-562 leukemia): 1320 nM | GI50 (KM12 colon): 128 nM | TGI (KM12 colon): 1030 nM | GI50 (LOX IMVI melanoma): 55.8 nM | TGI (LOX IMVI melanoma): 310 nM | GI50 (M14 melanoma): 151 nM | TGI (M14 melanoma): 383 nM | GI50 (MALME-3M melanoma): 131 nM | TGI (MALME-3M melanoma): 407 nM | GI50 (MCF7 breast): 205 nM | TGI (MCF7 breast): 1030 nM | GI50 (MDA-MB-231 breast): 160 nM | TGI (MDA-MB-231 breast): 892 nM | GI50 (MDA-MB-435): 142 nM | TGI (MDA-MB-435): 501 nM | GI50 (MOLT-4 leukemia): 59.4 nM | TGI (MOLT-4 leukemia): 1660 nM | GI50 (NCI-H226 lung): 91.1 nM | TGI (NCI-H226 lung): 382 nM | GI50 (NCI-H23 lung): 100 nM | TGI (NCI-H23 lung): 417 nM | GI50 (NCI-H460 lung): 265 nM | TGI (NCI-H460 lung): 1070 nM | GI50 (NCI-H522 lung): 88.1 nM | TGI (NCI-H522 lung): 318 nM | GI50 (NCI/ADR-RES ovarian): 68.2 nM | TGI (NCI/ADR-RES ovarian): 600 nM | GI50 (OVCAR-3 ovarian): 119 nM | TGI (OVCAR-3 ovarian): 470 nM | GI50 (OVCAR-4 ovarian): 217 nM | TGI (OVCAR-4 ovarian): 697 nM | GI50 (OVCAR-5 ovarian): 216 nM | TGI (OVCAR-5 ovarian): 912 nM | GI50 (OVCAR-8 ovarian): 116 nM | TGI (OVCAR-8 ovarian): 2990 nM | GI50 (PC-3 prostate): 137 nM | TGI (PC-3 prostate): 821 nM | GI50 (RPMI-8226 leukemia): 95.3 nM | TGI (RPMI-8226 leukemia): 1800 nM | GI50 (RXF 393 renal): 120 nM | TGI (RXF 393 renal): 390 nM | GI50 (SF-268 CNS): 98.8 nM | TGI (SF-268 CNS): 823 nM | GI50 (SF-295 CNS): 128 nM | TGI (SF-295 CNS): 765 nM | GI50 (SF-539 CNS): 173 nM | TGI (SF-539 CNS): 1070 nM | GI50 (SK-MEL-2 melanoma): 190 nM | TGI (SK-MEL-2 melanoma): 677 nM | GI50 (SK-MEL-28 melanoma): 183 nM | TGI (SK-MEL-28 melanoma): 463 nM | GI50 (SK-MEL-5 melanoma): 192 nM | TGI (SK-MEL-5 melanoma): 651 nM | GI50 (SK-OV-3 ovarian): 216 nM | TGI (SK-OV-3 ovarian): 713 nM | GI50 (SN12C renal): 78.3 nM | TGI (SN12C renal): 865 nM | GI50 (SNB-19 CNS): 107 nM | TGI (SNB-19 CNS): 1330 nM | GI50 (SNB-75 CNS): 141 nM | TGI (SNB-75 CNS): 703 nM | GI50 (SR leukemia): 44.7 nM | GI50 (SW-620 colon): 48.2 nM | TGI (SW-620 colon): 839 nM | GI50 (T-47D breast): 382 nM | TGI (T-47D breast): 15800 nM | GI50 (TK-10 renal): 334 nM | TGI (TK-10 renal): 1310 nM | GI50 (U251 CNS): 99.2 nM | TGI (U251 CNS): 830 nM | GI50 (UACC-257 melanoma): 181 nM | TGI (UACC-257 melanoma): 651 nM | GI50 (UACC-62 melanoma): 98.4 nM | TGI (UACC-62 melanoma): 264 nM | GI50 (UO-31 renal): 53.6 nM | TGI (UO-31 renal): 728 nM
